These results are taken from patent publication US20160038551A1, “STABILIZED MESEMBRINE COMPOSITIONS” (BOTANICAL RESOURCE HOLDINGS PROPRIETARY LIMITED, priority 2013, published 2016).

This assay deals with serotonin-uptake. Briefly: Serotonin-uptake inhibition studies. The conditions noted are these: extensive studies conducted in respect of the present invention; no details.

In the case of `COc1ccc([C@@]23CCC(=O)C[C@@H]2N(C)CC3)cc1OC` [mesembrine], the serotonin-uptake inhibition properties entry is on record as “do not show serotonin-uptake inhibition properties”.
